In patent US7834217B2, “Method for producing oxidation product of cycloalkane” (Daicel Chemical Industries, Ltd., priority 2006, dated 2010):

Assay: Solubility in water at 25° C.
Format: physicochemical

solubility in water (25° C.): ≤ 0.01 g/100 g-H2O
SMILES: O=C1c2ccccc2C(=O)N1O [N-hydroxyphthalimide]
